Results as given in ChEMBL document CHEMBL5346961, “Discovery and Evaluation of 3-Quinoxalin Urea Derivatives as Potent, Selective, and Orally Available ATM Inhibitors Combined with Chemotherapy for the Treatment of Cancer via Goal-Oriented Molecule Generation and Virtual Screening” (J Med Chem, 2023).

Tests used:
[1] = Half life in Balb/C mouse at 10 mg/kg,iv measured upto 48 hrs by LC-MS/MS analysis; type: ADME, organism-based; details: in vivo
[2] = system: HCT-116; assay: Inhibition of colony formation in human HCT-116 cells at 0.01 uM preincubated for 1 hr followed by exposure to 2 Gy gamma irradiation and measured after 1 week by crystal violet staining based […] assay relative to control; type: functional; details: HCT-116, light or radiation study, time 169 hrs
[3] = Clearance in Balb/C mouse at 10 mg/kg,po measured upto 48 hrs by LC-MS/MS analysis; type: ADME, organism-based; details: in vivo
[4] = Apparent permeability of compound across apical to basal membrane in human Caco-2 cells; type: ADME, cell-based

## CC(C)NC(=O)N(C)c1cnc2ccc(-c3ccc(OCCCN4CCCCC4)nc3)cc2n1
[1]
  t1/2: 5.29 h
[2]
  inhibition at 0.01 µM: 94.1%
[3]
  CL/F: 12.2 mL/min/kg
[4]
  Papp A→B: 1.02 ×10⁻⁶ cm/s
